Measurements published in BindingDB's records for patent US9862711 (Novartis, 2018).

Target: Phosphatidylinositol 4-kinase beta (Homo sapiens, UniProt Q9UBF8)
Assay: Kinase Glo Luminescent Kinase Assay
Text: PI 3-Kinase Alpha (A), Pb 3-Kinase Beta (B), Vps34 (C), PI 4-Kinase Beta (D):The luminescence-based ATP detection reagent KinaseGlo was obtained from Promega, (Cat. No. V6714, Lot No. 236161) through Catalys, Wallisellen, Switzerland. L-alpha-phosphatidylinositol (PI, liver, bovine) was obtained from Avanti Polar Lipid (Cat. No. 840042C, Lot#LPI-274), Phosphatidylinositol-4,5-bisphosphate (PIP(4,5)2) was also obtained from Avanti Polar Lipid (Cat. No. 840046X). L-α-Phosphatidylserine (PS) was obtained from Avanti Polar Lipid (Cat. No. 840032C), n-Octylglucoside from Avanti Polar Lipid (Cat. No. 10634425001). Luminescence is a well established readout to determine ATP concentrations and can thus be used to follow the activity of many kinases regardless of their substrate. The Kinase Glo Luminescent Kinase Assay (Promega, Madison/WI, USA) is a homogeneous HTS method of measuring kinase activity by quantifying the amount of ATP remaining in solution following a kinase reaction.

Sequence of Phosphatidylinositol 4-kinase beta (Q9UBF8 whole entry): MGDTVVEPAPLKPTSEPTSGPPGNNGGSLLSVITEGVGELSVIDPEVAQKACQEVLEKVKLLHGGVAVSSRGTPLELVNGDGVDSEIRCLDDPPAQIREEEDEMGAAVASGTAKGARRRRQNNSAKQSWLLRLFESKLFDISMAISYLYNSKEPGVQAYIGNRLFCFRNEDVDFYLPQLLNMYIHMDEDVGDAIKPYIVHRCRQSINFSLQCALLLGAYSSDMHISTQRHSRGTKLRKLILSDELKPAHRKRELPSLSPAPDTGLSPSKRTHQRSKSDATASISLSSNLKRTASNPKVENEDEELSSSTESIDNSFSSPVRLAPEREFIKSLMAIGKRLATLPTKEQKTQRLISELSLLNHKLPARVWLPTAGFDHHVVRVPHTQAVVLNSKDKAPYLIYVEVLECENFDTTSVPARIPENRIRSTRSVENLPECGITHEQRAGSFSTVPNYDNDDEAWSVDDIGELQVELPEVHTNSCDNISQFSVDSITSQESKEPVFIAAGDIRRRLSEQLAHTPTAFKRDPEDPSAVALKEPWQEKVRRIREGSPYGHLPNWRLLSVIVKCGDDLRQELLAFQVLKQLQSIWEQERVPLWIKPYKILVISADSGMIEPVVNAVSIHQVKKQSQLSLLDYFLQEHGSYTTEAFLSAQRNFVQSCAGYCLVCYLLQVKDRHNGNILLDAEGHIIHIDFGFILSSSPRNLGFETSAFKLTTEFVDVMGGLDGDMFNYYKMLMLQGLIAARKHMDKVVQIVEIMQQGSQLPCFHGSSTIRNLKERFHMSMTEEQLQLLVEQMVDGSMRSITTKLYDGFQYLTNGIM

IC50 [µM]	Structure (SMILES)
> 10	Cc1ccc(S(=O)(=O)NC2CC3(CC(O)C3)C2)cc1-c1cncc(-c2cn(C)nc2C)n1 (centres undefined) [US9862711, Example 6]
> 10	Cc1ccc(S(=O)(=O)NC[C@H]2C[C@@H](O)C2)cc1-c1cncc(-c2cn(C)nc2C)n1 [US9862711, Example 7]
> 9.1	Cc1ccc(S(=O)(=O)N[C@H]2CC[C@H](O)CC2)cc1-c1cncc(-c2csc(CN3CCOCC3)c2)n1 [US9862711, Example 12]
> 9.55	Cc1cc(-c2cncc(-c3cc(S(=O)(=O)NC[C@H]4C[C@@H](O)C4)ccc3C)n2)n(C)n1 [US9862711, Example 13]
